Legend:
PIG-W = molecular target: T1, PIG-W (Homo sapiens, UniProt Q7Z7B1); experiment: Growth of S. cerevisiae strain whose GWT1 is replaced by the human gene PIG-W; assay type: cell-based
T1 construct: expressed in transfected cells; host or cells: S. cerevisiae BY4741-derived gwt1 deletion shuttle strain carrying a pAG415GPD-based PIG-W plasmid
T1 sequence (Q7Z7B1 1-504): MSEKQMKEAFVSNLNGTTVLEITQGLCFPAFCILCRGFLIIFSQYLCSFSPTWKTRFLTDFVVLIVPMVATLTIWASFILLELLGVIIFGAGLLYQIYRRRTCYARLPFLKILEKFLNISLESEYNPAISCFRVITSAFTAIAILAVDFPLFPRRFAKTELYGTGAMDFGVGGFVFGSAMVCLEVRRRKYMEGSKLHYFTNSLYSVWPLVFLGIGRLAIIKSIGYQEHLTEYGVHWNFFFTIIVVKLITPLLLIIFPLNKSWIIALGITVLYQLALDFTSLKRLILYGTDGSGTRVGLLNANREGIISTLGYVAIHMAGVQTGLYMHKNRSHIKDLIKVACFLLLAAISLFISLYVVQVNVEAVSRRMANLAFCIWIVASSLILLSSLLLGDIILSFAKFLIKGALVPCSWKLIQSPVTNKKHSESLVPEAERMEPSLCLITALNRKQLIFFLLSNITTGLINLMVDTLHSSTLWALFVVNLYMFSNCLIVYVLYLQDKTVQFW
Experimental: Sensitivity to gepinacin was determined in 96-well, flat bottom microtiter plates using a modification of the NCCLS broth microdilution protocol CLS M27-A3 and RPMI as culture medium. Fungi were inoculated at ˜10^3 cells per ml and incubated for 48 hours at 37° C. after which plates were sealed, shaken and the optical density read at 600 nm (OD600) on a Tecan Safire 2 plate reader. All samples were run in duplicate or triplicate and assays were repeated at least once. Results are expressed as fraction of growth in the absence of compound and the mean and standard deviation are plotted. For the mold A. terreus, inoculum was 10^4 cells per ml and plates were incubated at 35° C. for 48 hours in the dark. Plates were then visually scored as specified by CLSI document M38-A2 to determine the MIC50 and MIC80.
Because GWT1 deletion is lethal in S. cerevisiae strain BY4741, a haploid shuttle strain was constructed in which the genomic copy of GWT1 was deleted and replaced by GWT1 on a plasmid that also encoded the URA3 gene and a G418-resistance gene. […]
An S. cerevesiae strain was generated in which the endogenous Gwt1 gene was deleted. […] Shown in FIGS. 22A-D show the effect of the indicated compounds on growth (assessed by OD600) and viability (assessed using Bactiter Glo) of the yeast strain with high copy or low copy plasmid containing S. cerevesiae Gwt1. […]

[1] = tested on: fluconazole-resistant C. albicans strains CaCi2, 8 and 17; experiment: Filamentation, liquid assay; assay type: cell-based; conditions: 5 μM
Experimental: For liquid assays, C. albicans strains were grown overnight in YPD with DMSO or 5 μM gepinacin. After dilution to an OD600 of 0.1 in Spider media, growth was continued for an additional 3 hours with agitation at 37° C. in the presence of compound before transfer to a 24 well plate for imaging (Shen, et al. (2008) Proc Natl Acad Sci USA 105, 20918-20923). Assays with S. cerevisiae strain Sigma 1278B on solid media were performed as previously described (Liu, et al. (1994) Science 266, 1723-1726) except gepinacin was added directly to partially cooled plate media and colonies were imaged after growth for 6 or 9 days at 30° C.
Because of its role in tissue invasion, a key determinant of fungal virulence is the ability to switch between yeast and filamentous forms (Shapiro, et al. (2011) Microbiol Mol Biol Rev 75, 213-267; Sudbery, (2011) Nat Rev Microbiol 9, 737-748; Noble, et al. (2010) Nat Genet 42, 590-598). A previous report has shown that mature GPI-anchors are required for this process (Richard, et al. (2002) Microbiology 148, 2125-2133). […] In the absence of gepinacin, all three drug-resistant clinical isolates underwent marked transformation to large macroscopic mats, readily visible to the eye. […]

## COc1ccc(NC(=O)COc2cccc(OCC(C)C)c2)cc1 [gepinacin]
PIG-W
  activity against PigW / in the PIG-W expressing strain: inactive
[1]
  filamentation in Spider medium: completely blocked
